Laboratory results reported in the kinase profiling compilation of Christmann-Franck et al. (2016).

Tests used:
Experiment in all cases: radiometric filter-binding kinase assay, Kinase HotSpot
Conditions in all cases: compound 0.5 µM; ATP 10 µM
NEK3 (human) = NEK3 (human) (UniProt P51956)
ABL1 (human) = ABL1 (human) (UniProt P00519)
CDC42BPB (human) = CDC42BPB (human) (UniProt Q9Y5S2)
FLT3 (human) = FLT3 (human) (UniProt P36888)
PBK (human) = PBK (human) (UniProt Q96KB5)
ROS1 (human) = ROS1 (human) (UniProt P08922)
Chain of ROS1 (human) (P08922 whole entry, looked up): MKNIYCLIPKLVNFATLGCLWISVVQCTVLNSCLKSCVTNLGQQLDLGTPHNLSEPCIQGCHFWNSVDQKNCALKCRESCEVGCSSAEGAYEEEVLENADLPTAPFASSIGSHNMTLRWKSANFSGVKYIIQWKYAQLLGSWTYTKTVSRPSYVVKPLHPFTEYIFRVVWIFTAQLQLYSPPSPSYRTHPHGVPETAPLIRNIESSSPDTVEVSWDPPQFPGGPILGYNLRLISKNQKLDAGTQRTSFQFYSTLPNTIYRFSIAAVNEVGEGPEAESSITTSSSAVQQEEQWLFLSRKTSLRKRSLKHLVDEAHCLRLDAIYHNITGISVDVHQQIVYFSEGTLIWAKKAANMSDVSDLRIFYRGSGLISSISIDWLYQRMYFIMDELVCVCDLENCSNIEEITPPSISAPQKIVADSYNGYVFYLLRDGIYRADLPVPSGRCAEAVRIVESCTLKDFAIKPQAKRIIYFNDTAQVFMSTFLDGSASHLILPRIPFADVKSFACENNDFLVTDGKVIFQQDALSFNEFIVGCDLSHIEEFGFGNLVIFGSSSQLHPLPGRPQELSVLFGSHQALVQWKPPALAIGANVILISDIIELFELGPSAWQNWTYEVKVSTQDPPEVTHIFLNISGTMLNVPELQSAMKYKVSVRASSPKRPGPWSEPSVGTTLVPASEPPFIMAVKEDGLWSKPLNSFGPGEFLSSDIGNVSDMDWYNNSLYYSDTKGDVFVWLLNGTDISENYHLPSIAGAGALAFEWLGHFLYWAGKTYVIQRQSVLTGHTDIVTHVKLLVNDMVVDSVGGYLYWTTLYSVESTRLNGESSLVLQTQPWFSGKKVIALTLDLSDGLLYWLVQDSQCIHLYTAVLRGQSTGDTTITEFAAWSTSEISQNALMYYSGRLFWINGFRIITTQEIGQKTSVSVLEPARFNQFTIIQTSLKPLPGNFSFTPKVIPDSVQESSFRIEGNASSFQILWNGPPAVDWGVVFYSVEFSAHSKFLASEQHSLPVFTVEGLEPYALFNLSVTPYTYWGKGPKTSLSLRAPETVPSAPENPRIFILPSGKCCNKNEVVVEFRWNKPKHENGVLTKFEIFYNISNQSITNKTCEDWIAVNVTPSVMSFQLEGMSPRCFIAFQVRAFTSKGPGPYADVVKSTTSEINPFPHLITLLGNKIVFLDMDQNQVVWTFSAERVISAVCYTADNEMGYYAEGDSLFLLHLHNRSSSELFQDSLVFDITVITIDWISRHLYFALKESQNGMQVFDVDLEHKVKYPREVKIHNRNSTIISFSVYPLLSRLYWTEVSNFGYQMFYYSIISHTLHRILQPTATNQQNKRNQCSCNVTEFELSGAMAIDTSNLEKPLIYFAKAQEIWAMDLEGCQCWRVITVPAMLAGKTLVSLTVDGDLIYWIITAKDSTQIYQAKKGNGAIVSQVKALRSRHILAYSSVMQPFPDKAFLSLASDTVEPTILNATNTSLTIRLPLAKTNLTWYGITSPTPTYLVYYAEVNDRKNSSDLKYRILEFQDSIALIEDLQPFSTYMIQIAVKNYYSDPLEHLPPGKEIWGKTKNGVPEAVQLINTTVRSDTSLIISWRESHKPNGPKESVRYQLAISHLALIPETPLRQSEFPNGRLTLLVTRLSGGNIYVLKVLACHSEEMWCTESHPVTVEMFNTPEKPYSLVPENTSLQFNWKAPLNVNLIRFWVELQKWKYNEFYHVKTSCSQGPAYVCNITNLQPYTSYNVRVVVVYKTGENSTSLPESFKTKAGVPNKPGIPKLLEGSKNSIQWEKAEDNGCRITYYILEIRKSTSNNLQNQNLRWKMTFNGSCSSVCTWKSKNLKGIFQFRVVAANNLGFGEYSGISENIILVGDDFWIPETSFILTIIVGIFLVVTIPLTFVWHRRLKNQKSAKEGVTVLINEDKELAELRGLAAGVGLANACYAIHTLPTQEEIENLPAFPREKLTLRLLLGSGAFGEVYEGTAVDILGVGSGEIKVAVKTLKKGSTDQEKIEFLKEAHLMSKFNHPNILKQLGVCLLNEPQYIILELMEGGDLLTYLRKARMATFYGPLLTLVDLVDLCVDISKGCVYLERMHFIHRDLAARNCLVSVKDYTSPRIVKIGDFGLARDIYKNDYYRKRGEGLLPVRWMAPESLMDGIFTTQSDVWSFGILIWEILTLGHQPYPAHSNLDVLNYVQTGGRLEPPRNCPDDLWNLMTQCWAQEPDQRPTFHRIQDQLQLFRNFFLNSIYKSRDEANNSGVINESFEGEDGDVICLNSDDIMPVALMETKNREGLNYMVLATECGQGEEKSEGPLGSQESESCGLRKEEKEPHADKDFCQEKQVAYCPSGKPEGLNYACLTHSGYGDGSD

DYRK4 (human) = DYRK4 (human) (UniProt Q9NR20)
CSNK2A1 (human) = CSNK2A1 (human) (UniProt P68400)
TSSK1B (human) = TSSK1B (human) (UniProt Q9BXA7)
GRK4 (human) = GRK4 (human) (UniProt P32298)
WEE1 (human) = WEE1 (human) (UniProt P30291)
CSNK1D (human) = CSNK1D (human) (UniProt P48730)
CDK5 CDK5R1 p25 (human) = CDK5 CDK5R1 p25 (human) (UniProt Q00535+Q15078)
CAMK1G (human) = CAMK1G (human) (UniProt Q96NX5)
ADRBK2 (human) = ADRBK2 (human) (UniProt P35626)
CDK3 CCNE1 (human) = CDK3 CCNE1 (human) (UniProt Q00526+P24864)
DAPK3 (human) = DAPK3 (human) (UniProt O43293)
FGFR4 (human) = FGFR4 (human) (UniProt P22455)
CSNK1G2 (human) = CSNK1G2 (human) (UniProt P78368)
Chain of CSNK1G2 (human) (P78368 whole entry, looked up): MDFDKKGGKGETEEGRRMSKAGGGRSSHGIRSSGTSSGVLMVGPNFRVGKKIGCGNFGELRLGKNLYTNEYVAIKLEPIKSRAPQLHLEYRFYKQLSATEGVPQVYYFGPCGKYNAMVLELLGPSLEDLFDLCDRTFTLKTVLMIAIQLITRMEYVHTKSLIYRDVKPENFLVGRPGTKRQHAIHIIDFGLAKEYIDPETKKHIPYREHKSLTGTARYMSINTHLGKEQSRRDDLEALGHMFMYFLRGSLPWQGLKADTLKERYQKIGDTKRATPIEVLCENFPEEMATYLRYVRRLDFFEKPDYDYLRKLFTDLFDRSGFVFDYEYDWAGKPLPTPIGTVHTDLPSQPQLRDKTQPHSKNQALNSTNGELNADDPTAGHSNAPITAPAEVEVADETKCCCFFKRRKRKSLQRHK

RIPK2 (human) = RIPK2 (human) (UniProt O43353)
TLK2 (human) = TLK2 (human) (UniProt Q86UE8)
Chain of TLK2 (human) (Q86UE8 whole entry, looked up): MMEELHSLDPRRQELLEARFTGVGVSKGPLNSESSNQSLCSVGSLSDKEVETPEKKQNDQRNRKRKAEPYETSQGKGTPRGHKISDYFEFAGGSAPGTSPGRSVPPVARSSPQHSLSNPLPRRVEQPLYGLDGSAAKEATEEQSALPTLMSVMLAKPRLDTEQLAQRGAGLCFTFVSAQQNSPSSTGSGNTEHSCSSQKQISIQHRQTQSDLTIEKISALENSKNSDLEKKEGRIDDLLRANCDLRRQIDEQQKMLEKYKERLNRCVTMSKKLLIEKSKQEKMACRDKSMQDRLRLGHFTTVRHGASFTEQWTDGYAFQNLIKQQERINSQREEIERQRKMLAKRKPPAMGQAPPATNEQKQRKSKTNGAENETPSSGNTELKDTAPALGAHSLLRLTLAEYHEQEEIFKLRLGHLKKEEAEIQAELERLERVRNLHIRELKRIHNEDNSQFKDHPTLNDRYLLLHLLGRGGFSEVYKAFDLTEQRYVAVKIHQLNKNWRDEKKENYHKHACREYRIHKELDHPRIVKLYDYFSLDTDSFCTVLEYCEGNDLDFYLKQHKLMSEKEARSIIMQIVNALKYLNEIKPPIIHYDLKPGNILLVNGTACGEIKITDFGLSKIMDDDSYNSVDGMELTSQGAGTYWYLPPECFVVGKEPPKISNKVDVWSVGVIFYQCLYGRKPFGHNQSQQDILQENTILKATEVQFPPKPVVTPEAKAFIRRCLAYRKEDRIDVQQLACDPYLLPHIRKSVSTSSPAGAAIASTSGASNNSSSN

PRKCB2 (human) = PRKCB2 (human) (UniProt P05771)
BLK (human) = BLK (human) (UniProt P51451)
NEK2 (human) = NEK2 (human) (UniProt P51955)
Chain of NEK2 (human) (P51955 whole entry, looked up): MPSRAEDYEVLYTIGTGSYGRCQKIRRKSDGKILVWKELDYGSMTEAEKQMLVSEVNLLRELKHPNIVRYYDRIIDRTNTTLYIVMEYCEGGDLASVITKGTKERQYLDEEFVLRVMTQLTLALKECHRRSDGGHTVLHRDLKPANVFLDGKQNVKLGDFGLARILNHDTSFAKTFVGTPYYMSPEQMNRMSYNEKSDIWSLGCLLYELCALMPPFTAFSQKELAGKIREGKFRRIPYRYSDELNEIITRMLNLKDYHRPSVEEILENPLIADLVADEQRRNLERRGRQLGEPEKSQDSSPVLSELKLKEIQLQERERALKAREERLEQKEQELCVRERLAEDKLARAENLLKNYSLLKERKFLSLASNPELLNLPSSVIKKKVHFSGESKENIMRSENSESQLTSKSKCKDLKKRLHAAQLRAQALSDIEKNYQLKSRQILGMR

CDK7 CCNH MNAT1 (human) = CDK7 CCNH MNAT1 (human) (UniProt P50613+P51948+P51946)
RPS6KA5 KD2 (human) = RPS6KA5 KD2 (human) (UniProt O75582)
BRSK1 (human) = BRSK1 (human) (UniProt Q8TDC3)
MAP4K5 (human) = MAP4K5 (human) (UniProt Q9Y4K4)
SIK2 (human) = SIK2 (human) (UniProt Q9H0K1)
EPHA5 (human) = EPHA5 (human) (UniProt P54756)
AKT3 (human) = AKT3 (human) (UniProt Q9Y243)
SGK3 (human) = SGK3 (human) (UniProt Q96BR1)
Chain of SGK3 (human) (Q96BR1 whole entry, looked up): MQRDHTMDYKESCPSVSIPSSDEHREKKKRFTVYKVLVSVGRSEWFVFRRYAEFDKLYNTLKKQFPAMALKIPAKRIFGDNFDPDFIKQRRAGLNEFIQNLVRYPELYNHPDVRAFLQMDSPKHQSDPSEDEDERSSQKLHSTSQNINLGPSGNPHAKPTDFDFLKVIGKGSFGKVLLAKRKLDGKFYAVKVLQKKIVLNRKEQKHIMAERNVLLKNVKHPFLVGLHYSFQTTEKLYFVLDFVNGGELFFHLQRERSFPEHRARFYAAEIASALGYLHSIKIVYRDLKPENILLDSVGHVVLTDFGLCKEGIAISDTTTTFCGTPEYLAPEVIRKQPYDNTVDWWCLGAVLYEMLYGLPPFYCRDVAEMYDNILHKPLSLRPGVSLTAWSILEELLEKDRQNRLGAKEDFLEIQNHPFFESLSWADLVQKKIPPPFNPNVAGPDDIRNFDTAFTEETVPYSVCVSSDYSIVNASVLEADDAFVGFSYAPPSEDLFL

RPS6KA2 KD1 KD2 (human) = RPS6KA2 KD1 KD2 (human) (UniProt Q15349)
DYRK1B (human) = DYRK1B (human) (UniProt Q9Y463)
PLK3 (human) = PLK3 (human) (UniProt Q9H4B4)
ACVR1 (human) = ACVR1 (human) (UniProt Q04771)
EPHA7 (human) = EPHA7 (human) (UniProt Q15375)
MAPK11 (human) = MAPK11 (human) (UniProt Q15759)
MYLK2 (human) = MYLK2 (human) (UniProt Q9H1R3)
IGF1R (human) = IGF1R (human) (UniProt P08069)
DYRK1A (human) = DYRK1A (human) (UniProt Q13627)

Chain of PBK (human) (Q96KB5 whole entry, looked up): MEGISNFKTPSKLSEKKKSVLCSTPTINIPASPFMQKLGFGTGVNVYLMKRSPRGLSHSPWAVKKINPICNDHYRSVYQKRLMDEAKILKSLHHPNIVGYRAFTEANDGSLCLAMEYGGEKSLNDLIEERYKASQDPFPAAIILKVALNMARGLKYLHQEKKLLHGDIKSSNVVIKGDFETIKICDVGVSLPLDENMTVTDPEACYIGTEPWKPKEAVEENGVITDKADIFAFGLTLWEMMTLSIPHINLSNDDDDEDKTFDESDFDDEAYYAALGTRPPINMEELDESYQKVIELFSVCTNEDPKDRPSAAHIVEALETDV

Structure (SMILES) | residual activity (NEK3 (human)) | residual activity (FLT3 (human)) | residual activity (PBK (human)) | residual activity (ROS1 (human)) | residual activity (DYRK4 (human)) | residual activity (CSNK2A1 (human)) | residual activity (TSSK1B (human)) | residual activity (GRK4 (human)) | residual activity (WEE1 (human)) | residual activity (CSNK1D (human)) | residual activity (CAMK1G (human)) | residual activity (ADRBK2 (human)) | residual activity (CDK3 CCNE1 (human)) | residual activity (DAPK3 (human)) | residual activity (FGFR4 (human)) | residual activity (CSNK1G2 (human)) | residual activity (RIPK2 (human)) | residual activity (TLK2 (human)) | residual activity (PRKCB2 (human)) | residual activity (BLK (human)) | other results
CCCC(=O)Oc1ccc2[nH]c(C(=O)c3cc4ccccc4[nH]3)cc2c1 | 95.5% | 79.9% | 104% | 97% | 86% | 99.8% | 78.1% | 93.7% | 85.8% | 96.4% | 100% | 101% | 88.2% | 88.5% | 90.9% | 95.5% | 90% | 97.1% | 102% | 102% | residual activity (ABL1 (human)): 100%; residual activity (CDC42BPB (human)): 99.5%; residual activity (CDK5 CDK5R1 p25 (human)): 90.1%; residual activity (NEK2 (human)): 86.8%; residual activity (CDK7 CCNH MNAT1 (human)): 98.7%; residual activity (RPS6KA5 KD2 (human)): 95.3%; residual activity (BRSK1 (human)): 99.5%; residual activity (MAP4K5 (human)): 88%; residual activity (SIK2 (human)): 97.6%; residual activity (EPHA5 (human)): 97.7%; residual activity (AKT3 (human)): 101%; residual activity (SGK3 (human)): 102%; residual activity (RPS6KA2 KD1 KD2 (human)): 85%; residual activity (DYRK1B (human)): 103%; residual activity (PLK3 (human)): 98.4%; residual activity (ACVR1 (human)): 100%; residual activity (EPHA7 (human)): 97.2%; residual activity (MAPK11 (human)): 87.7%; residual activity (MYLK2 (human)): 98.2%; residual activity (IGF1R (human)): 88.3%
CNC(=O)c1cc(Oc2ccc(NC(=O)Nc3ccc(Cl)c(C(F)(F)F)c3)cc2)ccn1 | 97.2% | 9.22% | 97.5% | 95.7% | 105% | 108% | 98.7% | 103% | 103% | 103% | 107% | 98.4% | 96.5% | 92.9% | 104% | 88.9% | 86.2% | 84.8% | 97.5% | 99.1% | residual activity (CDC42BPB (human)): 102%; residual activity (CDK5 CDK5R1 p25 (human)): 97.2%; residual activity (NEK2 (human)): 99.3%; residual activity (CDK7 CCNH MNAT1 (human)): 102%; residual activity (RPS6KA5 KD2 (human)): 102%; residual activity (BRSK1 (human)): 95.8%; residual activity (MAP4K5 (human)): 57%; residual activity (SIK2 (human)): 102%; residual activity (EPHA5 (human)): 99.4%; residual activity (AKT3 (human)): 94.2%; residual activity (SGK3 (human)): 101%; residual activity (RPS6KA2 KD1 KD2 (human)): 93.3%; residual activity (DYRK1B (human)): 93.2%; residual activity (PLK3 (human)): 99.3%; residual activity (ACVR1 (human)): 98.7%; residual activity (EPHA7 (human)): 80.7%; residual activity (DYRK1A (human)): 103%; residual activity (MAPK11 (human)): 46.9%; residual activity (MYLK2 (human)): 96.1%; residual activity (IGF1R (human)): 94.3%
Nc1ncnc2c1c(-c1ccc(Oc3ccccc3)cc1)cn2C1CCCC1 | 98.4% | 4.48% | 114% | 101% | 91.6% | 102% | 114% | 103% | 77.8% | 85.1% | 95.8% | 92.2% | 92.6% | 114% | 98% | 93.7% | 28.6% | 112% | 107% | 1.52% | residual activity (ABL1 (human)): 67.4%; residual activity (CDC42BPB (human)): 107%; residual activity (NEK2 (human)): 88.5%; residual activity (CDK7 CCNH MNAT1 (human)): 96.8%; residual activity (RPS6KA5 KD2 (human)): 90.5%; residual activity (BRSK1 (human)): 99.7%; residual activity (MAP4K5 (human)): 80.2%; residual activity (SIK2 (human)): 101%; residual activity (EPHA5 (human)): 108%; residual activity (AKT3 (human)): 98.2%; residual activity (SGK3 (human)): 112%; residual activity (RPS6KA2 KD1 KD2 (human)): 101%; residual activity (DYRK1B (human)): 92.2%; residual activity (PLK3 (human)): 105%; residual activity (ACVR1 (human)): 95.4%; residual activity (EPHA7 (human)): 98.3%; residual activity (DYRK1A (human)): 99.1%; residual activity (MAPK11 (human)): 106%; residual activity (MYLK2 (human)): 92.4%; residual activity (IGF1R (human)): 104%
O=C1NC(=O)c2c1c1c3ccccc3n3c1c1c2c2ccccc2n1C1CCC3O1 | 102% | 0.194% | 39.9% | 1.6% | 87.8% | 16.7% | 17.7% | 77% | 16.9% | 93.8% | 56.5% | 101% | 71.5% | 24.6% | 70.4% | 81.8% | 79.7% | 14.1% | 6.42% | 37.7% | residual activity (ABL1 (human)): 72.7%; residual activity (CDK5 CDK5R1 p25 (human)): 28%; residual activity (NEK2 (human)): 93.8%; residual activity (CDK7 CCNH MNAT1 (human)): 80.4%; residual activity (RPS6KA5 KD2 (human)): 9.88%; residual activity (BRSK1 (human)): 14.8%; residual activity (MAP4K5 (human)): 2.69%; residual activity (SIK2 (human)): 33.9%; residual activity (EPHA5 (human)): 78.7%; residual activity (AKT3 (human)): 27.1%; residual activity (SGK3 (human)): 71.7%; residual activity (RPS6KA2 KD1 KD2 (human)): 1.33%; residual activity (DYRK1B (human)): 3.15%; residual activity (PLK3 (human)): 52.5%; residual activity (ACVR1 (human)): 85.8%; residual activity (EPHA7 (human)): 69.2%; residual activity (DYRK1A (human)): 8.74%; residual activity (MAPK11 (human)): 108%; residual activity (MYLK2 (human)): 7.76%; residual activity (IGF1R (human)): 63.8%
CC(C)N(CCC(=O)c1ccc2ccccc2c1)Cc1ccccc1 | 101% | 97.5% | 108% | 113% | 88.5% | 98.1% | 100% | 94.9% | 92.1% | 97.6% | 95.1% | 88.9% | 91.4% | 107% | 103% | 104% | 78.3% | 104% | 101% | 106% | residual activity (ABL1 (human)): 101%; residual activity (CDC42BPB (human)): 95%; residual activity (CDK5 CDK5R1 p25 (human)): 96.5%; residual activity (NEK2 (human)): 86.9%; residual activity (CDK7 CCNH MNAT1 (human)): 98%; residual activity (RPS6KA5 KD2 (human)): 102%; residual activity (BRSK1 (human)): 98%; residual activity (MAP4K5 (human)): 90.2%; residual activity (SIK2 (human)): 103%; residual activity (EPHA5 (human)): 118%; residual activity (AKT3 (human)): 95.8%; residual activity (SGK3 (human)): 106%; residual activity (DYRK1B (human)): 101%; residual activity (PLK3 (human)): 105%; residual activity (ACVR1 (human)): 93.6%; residual activity (EPHA7 (human)): 106%; residual activity (DYRK1A (human)): 105%; residual activity (MAPK11 (human)): 108%; residual activity (MYLK2 (human)): 100%; residual activity (IGF1R (human)): 107%
